Experimental data published in a compilation of properties of binary mixtures (doi:10.1016/j.molliq.2022.120022).

Experiment: xn = mol fraction of the nth substance listed
Details: 100 kPa

O + C[N+](C)(C)CCO.NCC(=O)[O-]
x2 = 0
Details	speed of sound [m/s]	viscosity [mPa·s]
298.15 K	–	0.89
303.15 K	–	0.8
308.15 K	–	0.72
313.15 K	1529	0.66
318.15 K	–	0.61
323.15 K	–	0.56

C[N+](C)(C)CCO.NCC(=O)[O-] + O
Details	speed of sound [m/s]	viscosity [mPa·s]
298.15 K, x1 = 0.1	1927.4	5.83
298.15 K, x1 = 0.2004	2082.9	23.73
298.15 K, x1 = 0.3	2134.5	56.96
298.15 K, x1 = 0.3996	2152.4	99
298.15 K, x1 = 0.5004	2156.2	154.4
298.15 K, x1 = 0.6004	2156	216
298.15 K, x1 = 0.6966	2153.1	274
298.15 K, x1 = 0.8014	2151.8	348
298.15 K, x1 = 0.8996	2146	420
303.15 K, x1 = 0.1	1922.7	5.01
303.15 K, x1 = 0.2004	2073.3	19.44
303.15 K, x1 = 0.3	2122.9	45.62
303.15 K, x1 = 0.3996	2140.5	77.3
303.15 K, x1 = 0.5004	2144.8	115.5
303.15 K, x1 = 0.6004	2143.4	160.8
303.15 K, x1 = 0.8014	2136.2	257
303.15 K, x1 = 0.8996	2133.2	306
303.15 K, x1 = 1	2129.1	363
308.15 K, x1 = 0.2004	2063.4	16.15
308.15 K, x1 = 0.3	2111.5	37.06
308.15 K, x1 = 0.5004	2132.2	89.6
308.15 K, x1 = 0.6004	2130.3	122.8
308.15 K, x1 = 0.6966	2127.8	153.5
308.15 K, x1 = 0.8014	2125.2	191.6
308.15 K, x1 = 0.8996	2120.1	227
308.15 K, x1 = 1	2116	264
313.15 K, x1 = 0.1	1911.9	3.8
313.15 K, x1 = 0.2004	2053.2	13.57
313.15 K, x1 = 0.3	2099.8	30.58
313.15 K, x1 = 0.6004	2118	95.3
313.15 K, x1 = 0.6966	2115	118.6
313.15 K, x1 = 0.8014	2112.1	147.4
313.15 K, x1 = 0.8996	2107.2	172.7
313.15 K, x1 = 1	2103.5	201
318.15 K, x1 = 0.2004	2043	11.51
318.15 K, x1 = 0.6004	2105.6	75.6
318.15 K, x1 = 0.6966	2102.3	92.7
318.15 K, x1 = 0.8014	2098.7	114.4
318.15 K, x1 = 0.8996	2094.2	134.5
323.15 K, x1 = 0.1	1899.4	2.97
323.15 K, x1 = 0.2004	2032.2	9.83
323.15 K, x1 = 0.3	2076.6	21.79
323.15 K, x1 = 0.3996	2091.4	34.59
323.15 K, x1 = 0.5004	2094.9	46.6
323.15 K, x1 = 0.6004	2092.8	60.8
323.15 K, x1 = 0.6966	2089.9	74.1
323.15 K, x1 = 0.8014	2086.3	91
323.15 K, x1 = 0.8996	2081.8	105.2
323.15 K, x1 = 1	2078.3	121.1
